In patent US5614520A, “2-arylthiazole derivatives and pharmaceutical composition thereof” (priority 1990, dated 1997):
Several values for one entry are separate records, joined by “and”; a condition that tells them apart may be missing. Equal entries are not always repeated.

Key:
[1] = molecular target: T1, xanthine oxidase (Bos taurus, UniProt P80457); experiment: In vitro determination of xanthine oxidase (XOD) inhibition; format: biochemical; conditions: xanthine oxidase from butter milk, xanthine substrate, pH 7.4, 37° C.
T1 construct: purchased Sigma Chemical Company; host or cells: butter milk
Procedure: (1) Preparation of test compounds:
Test compounds (compounds of Ex. No. listed in Table 1) were dissolved in dimethylsulfoxide and diluted with a 50 mM phosphate buffer to prepare aqueous solutions respectively having predetermined concentrations.
The inhibition rate was determined by the following equation: [formula]
The inhibition (%) was determined on each test compound prepared according to (1), and the IC50 value on the xanthine oxidase (XOD) inhibition was calculated from the value of inhibition.

[2] = test system: interleukin 1 production; experiment: Interleukin 1 production inhibitory activity (LPS, abdominal exuded macrophage, ELISA); format: cell-based, BALB/c mouse; conditions: 10^-6 M, 1 μg/ml LPS, 24 hours, mouse macrophage
Procedure: 1 ml of a 5% oyster glycogen solution was intra-abdominally administered to a BALB/c mouse (male, 8 weeks in age), and 4 days after the administration, the infiltrated abdominal exuded cells were adhered to a plastic dish for 2 hours, and 1 μg/ml of LPS was allowed to act on macrophage (1×10^6 cells). Interleukin 1 extricated on the supernatant in 24 hours was measured by an ELISA technique. The test compound (compounds of Ex. No. described in Table 3) was prepared so as to have a concentration of 10^-6 M, and the interleukin 1 production inhibitory activity was, expressed in terms of the percentage inhibition based on the amount of production of the control.

[3] = test system: serum uric acid; experiment: Determination of oral administration: lowering of serum uric acid in mice; format: in vivo, ICR male mice; conditions: Mus musculus; ICR male mice, oral, 1 mg/kg, 2 hours after administration, serum; read-out: Activity of lowering uric acid
Procedure: Test compounds suspended in a 5% gum arabic solution was forcibly administered by oral administration (compounds of Ex. No. of Table 2, dose: 1 mg/kg) to ICR male mice (age: about 7 weeks) (one group: 6 mice) by means of an oral probe. 2 hours after the administration, thoracotomy was conducted under etherization to collect blood from the heart, and serum was removed by a conventional process. The serum uric acid was measured by a biochemical automatic analyzer (Flexigem; Electro-Nucleonics, Inc.) by using a uric acid measurement kit (UA reagent; International Reagent) to determine the percentage of the lowering of uric acid. [formula]

[4] = test system: collagen arthritis; experiment: Collagen arthritis inhibitory activity (bovine II type collagen in rats); format: in vivo, Lewis rats; conditions: 6 weeks; for Swelling: 5 times per week, right foot volume increase, control 45.5 ± 5.1; for Antibody titer of anti-collagen: serum, ELISA, control 2.04 ± 0.36
Procedure: An emulsion comprising a bovine II type collagen and incomplete Freund's adjuvant in a proportion of 1:1 were intradermally injected to Lewis rats (male, about 6 weeks in age) (one group: 8 […]) at the region of the back so that the amount of antigen was 2 mg/rat, thereby inducing arthritis. The compound of Ex. No. 35 was suspended in a 5% gum arabic solution, and orally administered 5 times per week in two groups of 10 mg/kg and 50 mg/kg from the sensitized day. Only the gum arabic solution was administered to the control. Then 6 weeks after the sensitization, the percentage increase in the volume of the right foot was measured and expressed in terms of the percentage swelling, and the anti-collagen antibody titer of the serum was measured by the ELISA technique.

T1 sequence (P80457 whole entry): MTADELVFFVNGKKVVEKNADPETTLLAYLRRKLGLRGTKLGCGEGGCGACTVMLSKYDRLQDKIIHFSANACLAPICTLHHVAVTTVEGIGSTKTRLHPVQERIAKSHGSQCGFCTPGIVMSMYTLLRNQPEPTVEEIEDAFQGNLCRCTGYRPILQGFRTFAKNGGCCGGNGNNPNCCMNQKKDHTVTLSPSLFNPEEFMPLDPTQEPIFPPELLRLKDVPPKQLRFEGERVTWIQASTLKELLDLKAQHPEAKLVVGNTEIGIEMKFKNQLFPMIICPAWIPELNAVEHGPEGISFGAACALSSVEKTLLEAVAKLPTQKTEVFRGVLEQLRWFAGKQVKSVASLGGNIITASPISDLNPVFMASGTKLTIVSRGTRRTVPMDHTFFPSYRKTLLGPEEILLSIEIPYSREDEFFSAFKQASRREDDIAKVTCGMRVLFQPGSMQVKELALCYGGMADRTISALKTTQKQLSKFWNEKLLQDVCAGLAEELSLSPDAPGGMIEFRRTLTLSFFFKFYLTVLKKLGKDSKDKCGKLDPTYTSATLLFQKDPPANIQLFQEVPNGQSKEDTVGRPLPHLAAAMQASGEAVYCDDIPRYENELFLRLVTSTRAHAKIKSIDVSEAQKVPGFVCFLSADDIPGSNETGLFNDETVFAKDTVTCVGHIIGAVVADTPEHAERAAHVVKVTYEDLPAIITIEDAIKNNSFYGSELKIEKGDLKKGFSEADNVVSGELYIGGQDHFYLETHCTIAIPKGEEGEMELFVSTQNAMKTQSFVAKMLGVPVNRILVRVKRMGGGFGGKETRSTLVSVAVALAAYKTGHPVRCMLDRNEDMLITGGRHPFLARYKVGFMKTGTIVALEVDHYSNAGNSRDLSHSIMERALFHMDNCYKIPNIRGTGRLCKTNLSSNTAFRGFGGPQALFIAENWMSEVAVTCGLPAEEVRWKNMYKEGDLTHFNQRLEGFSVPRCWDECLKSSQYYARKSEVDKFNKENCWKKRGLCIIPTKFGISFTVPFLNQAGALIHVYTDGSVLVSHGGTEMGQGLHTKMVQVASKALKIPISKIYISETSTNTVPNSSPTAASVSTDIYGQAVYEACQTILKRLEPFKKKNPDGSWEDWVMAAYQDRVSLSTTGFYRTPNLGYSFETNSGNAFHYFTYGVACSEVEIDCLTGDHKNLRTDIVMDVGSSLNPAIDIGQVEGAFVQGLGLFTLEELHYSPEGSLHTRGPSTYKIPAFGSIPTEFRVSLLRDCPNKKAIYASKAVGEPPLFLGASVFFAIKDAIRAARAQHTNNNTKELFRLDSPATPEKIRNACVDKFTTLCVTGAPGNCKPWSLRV

Structure (SMILES)	IC50 [1]	inhibition at 1 µM [2]	inhibition in vivo at 1 mg/kg [3]	Swelling ([4]; 10 mg/kg oral, *P < 0.05)	Antibody titer of anti-collagen ([4]; 10 mg/kg oral)	Swelling ([4]; 50 mg/kg oral, **P < 0.01)	Antibody titer of anti-collagen ([4]; 50 mg/kg oral)
Cc1nc(-c2cccc(C(F)(F)F)c2)sc1C(=O)O [Example 5, 4-Methyl-2-(3-trifluoromethylphenyl)-5-thiazolecarboxylic acid]	0.63 nM	60%	37%				
Cc1nc(-c2ccc(OC(C)C)c(Cl)c2)sc1C(=O)O [Example 50, 2-(3-Chloro-4-isopropoxyphenyl)-4-methyl-5-thiazolecarboxylic acid]	2.4 nM	42%	20%				
Cc1nc(-c2cc(C(F)(F)F)cc(C(F)(F)F)c2)sc1C(=O)O [Example 26, 2-(3,5-Bistrifluoromethylphenyl)-4-methyl-5-thiazolecarboxylic acid]	5.7 nM	57%	63%				
Cc1nc(-c2cc(Cl)c(O)c(Cl)c2)sc1C(=O)O [Example 28, 2-(3,5-Dichloro-4-hydroxyphenyl)-4-methyl-5-thiazolecarboxylic acid]	26 nM	52%					
Cc1nc(-c2ccc(OCCCCC(=O)O)cc2)sc1C(=O)O [Example 12, 2-(4-(4-Carboxybutyloxy)phenyl)-4-methyl-5-thiazolecarboxylic acid]	12 nM	42%					
Cc1nc(-c2ccc(OCC(C)C)c(F)c2)sc1C(=O)O [Example 67, 2-(3-fluoro-4-isobutyloxyphenyl)-4-methyl-5-thiazolecarboxylic acid]	1.5 nM	48%	50%				
Cc1nc(-c2ccc(OCc3ccc(F)cc3)c(Cl)c2)sc1C(=O)O [Example 58, 2-(3-Chloro-4-(4-fluorobenzyloxy)phenyl)-4-methyl-5-thiazolecarboxylic acid]	3.4 nM	19%	18%				
Cc1nc(-c2cccc(C(=O)Nc3ccc(Cl)cc3)c2)sc1C(=O)O [Example 15, 2-(3-(4-chlorophenylcarbamoyl)phenyl)-4-methyl-5-thiazolecarboxylic acid]	150 nM	38%					
Cc1nc(-c2ccc(OCC(C)(C)C)c([N+](=O)[O-])c2)sc1C(=O)O [Example 43, 2-(4-neopentyloxy-3-nitrophenyl)-4-methyl-5-thiazolecarboxylic acid]	0.64 nM	39%	85%				
Cc1nc(-c2ccc(C(=O)c3ccccc3)cc2)sc1C(=O)O [Example 20, 2-(4-Benzoylphenyl)-4-methyl-5-thiazolecarboxylic acid]	6 nM and 6.2 nM	65%	18%	25.4 ± 5.3%	1.88 ± 0.20 μU/ml	21.2 ± 4.2%	1.68 ± 0.32 μU/ml
Cc1nc(-c2ccc(N3CCOCC3)c([N+](=O)[O-])c2)sc1C(=O)O [Example 45, 4-methyl-2(4-morpholino-3-nitrophenyl)-5-thiazolecarboxylic acid]	1.8 nM	18%	88%				
Cc1ccc(C(=O)c2ccc(-c3nc(C)c(C(=O)O)s3)cc2)c(C)c1 [Example 75, 2-(4-(2,4-Dimethylbenzoyl)phenyl)-4-methyl-5-thiazolecarboxylic acid]	0.83 nM	48%	33%				
Cc1nc(-c2ccc(C(F)(F)F)cc2)sc1C(=O)O [Example 6, 4-Methyl-2-(4-trifluoromethylphenyl)-5-thiazolecarboxylic acid]	310 nM	38%					
Cc1nc(-c2cc(Cl)cc(Cl)c2)sc1C(=O)O [Example 27, 2-(3,5-Dichlorophenyl)-4-methyl-5-thiazolecarboxylic acid]	10 nM	43%					
